Assays:
P. granulosum NCTC 11865 = test: Agar dilution MIC assay; format: cell-based, Propionibacterium granulosum; conditions: P. granulosum NCTC 11865 (resistance None)
Description: (§1) The propionibacteria were cultured and maintained on Wilkins-Chalgren Anaerobe Medium (agar and broth) at pH 6.0; all cultures were incubated anaerobically at 37° C. for 72 hours.
(§2) This is a standard international method for quantitatively assessing the antimicrobial activity of a compound in a solid medium. The test compound was prepared to 40× the highest concentration required (eg, 10 mg/ml for a final concentration of 250 μg/ml) and a series of doubling dilutions were performed in a suitable solvent. A set amount of these antimicrobial stock solutions was then added to molten agar medium (ca. 55° C.), mixed thoroughly, poured into sterile Petri dishes and allowed to cool/set.
(§3) A Multipoint™ Inoculator (AQS Manufacturing Ltd, UK) was used to inoculate the plates by spotting the inocula onto the surface of the agar, delivering approximately 1 to 2 μl per spot (yielding 10^5 CFU(colony forming units) per spot).
(§4) The plate(s) were then incubated under the conditions described above, following which they were examined visually for signs of bacterial growth. The MIC value was ascertained when there was a marked reduction in, or total loss of, growth on the test plate at the lowest concentration as compared to that of the growth on the control plate.
(§5) The assays were conducted in duplicate and included a positive control (culture medium, diluting solvent and inoculum).

P. granulosum PRP-005 = test: Agar dilution MIC assay; format: cell-based, Propionibacterium granulosum; conditions: P. granulosum PRP-005 (MLSK)
Description: as §1, §2, §3, §4, §5

P. granulosum PRP-006 = test: Agar dilution MIC assay; format: cell-based, Propionibacterium granulosum; conditions: P. granulosum PRP-006 (MLS)
Description: as §1, §2, §3, §4, §5

P. granulosum PRP-019 = test: Agar dilution MIC assay; format: cell-based, Propionibacterium granulosum; conditions: P. granulosum PRP-019 (MLSK)
Description: as §1, §2, §3, §4, §5

P. granulosum PRP-021 = test: Agar dilution MIC assay; format: cell-based, Propionibacterium granulosum; conditions: P. granulosum PRP-021 (MLS)
Description: as §1, §2, §3, §4, §5

P. granulosum PRP-043 = test: Agar dilution MIC assay; format: cell-based, Propionibacterium granulosum; conditions: P. granulosum PRP-043 (MLS)
Description: as §1, §2, §3, §4, §5

P. granulosum PRP-044 = test: Agar dilution MIC assay; format: cell-based, Propionibacterium granulosum; conditions: P. granulosum PRP-044 (MLS)
Description: as §1, §2, §3, §4, §5

P. granulosum PRP-055 = test: Agar dilution MIC assay; format: cell-based, Propionibacterium granulosum; conditions: P. granulosum PRP-055 (resistance None)
Description: as §1, §2, §3, §4, §5

[1] = system: Por. gingivalis NCTC 11834; test: MIC assay, liquid medium; format: cell-based, Porphyromonas gingivalis
Description: The P. gingivalis strains were cultured and maintained on Wilkins-Chalgren Anaerobe Medium (agar and broth) at pH 7.0; all cultures were incubated anaerobically at 37° C. for 5-7 days.
(§6) This is a standard international method for quantitatively assessing the antimicrobial activity of a compound in a liquid medium. The method used a sterile 96-well microtitre plate, capable of holding about 200 μl of liquid per well. The wells contained liquid culture medium and ranges of decreasing concentrations of the relevant test compound in doubling dilutions (eg, 1000, 500, 250, 125 . . . μg/ml, etc. down to 0.49 μg/ml). The culture media were as described above.
(§7) The wells were inoculated with a liquid suspension of freshly grown micro-organism and incubated under the conditions described above. After incubation, the microtitre plate was examined visually (with the aid of a light box) for cloudiness in each well, which would indicate microbial growth. The MIC value was recorded as the lowest concentration of test compound required to inhibit microbial growth, ie, the lowest concentration for which the liquid in the well remained clear.
(§8) The assays included both negative (culture medium with no micro-organisms) and positive (culture medium plus diluting solvent plus micro-organism) controls.

Strep. mutans ATCC 25175 [2] = test: MIC assay, liquid medium; format: cell-based, Streptococcus mutans
Description: The S. mutans was cultured and maintained on Wilkins-Chalgren Anaerobe Medium (agar and broth) at pH 7.0 supplemented with 1 g/L glucose; all cultures were incubated at 37° C. for 48 h in an atmosphere containing 5% CO2.
as §6, §7, §8

Strep. mutans ATCC 25175 [3] = test: MBC assay; format: cell-based, Streptococcus mutans
Description: The S. mutans was cultured and maintained on Wilkins-Chalgren Anaerobe Medium (agar and broth) at pH 7.0 supplemented with 1 g/L glucose; all cultures were incubated at 37° C. for 48 h in an atmosphere containing 5% CO2. This assay, normally carried out after an MIC assay, determines the rnininiurn concentration of a compound that is lethal to the micro-organism being tested. […] These samples were then individually sub-cultured on antibiotic-free agar medium, under the incubation conditions described above. Following incubation they were examined visually for microbial growth.

C. striatum NCTC 764 [4] = test: MIC assay, liquid medium; format: cell-based, Corynebacterium striatum
Description: (§9) Several Corynebacterium test species were also used in this study, namely C. mucifaciens ATCC 700355, C. striatum NCTC 764, C. xerosis NCTC 11861 and C. jeikeium NCTC 11915. These Gram-positive pathogens are closely related to organisms (aerobic diphtheroids of the genus Corynebacterium) that cause body odour. C. mucifaciens and C. striatum were cultured and maintained on Mueller-Hinton Medium (agar and broth) and were incubated aerobically at 37° C. for 24 hours. C. xerosis and C. jeikeium were cultured and maintained on Mueller-Hinton Medium containing 5% (v/v) lysed horse blood (agar and broth) and were incubated aerobically at 37° C. for 72 hours.
This is a standard international method for quantitatively assessing the antimicrobial activity of a compound in a liquid medium. The method used a sterile 96-well microtitre plate, capable of holding about 200 μl of liquid per well. […]
The wells were inoculated with a liquid suspension of freshly grown micro-organism and incubated under the conditions described above. […] The MIC value was recorded as the lowest concentration of test compound required to inhibit microbial growth, ie, the lowest concentration for which the liquid in the well remained clear. […]

C. striatum NCTC 764 [5] = test: MBC assay; format: cell-based, Corynebacterium striatum
Description: as §9, with “72 hours. This assay, normally carried out after an MIC assay, determines the rnininiurn concentration of a compound that is lethal to the micro-organism being tested. […] These samples were then individually sub-cultured on antibiotic-free agar medium, under the incubation conditions described above. Following incubation they were examined visually for microbial growth.” for “72 hours.”

**Q.** For dioctyl sodium sulphosuccinate [DOSS], which MIC (P. granulosum NCTC 11865) is on record?
**A.** Its MIC is 31.25 µg/mL.

**Q.** What about the MIC (P. granulosum PRP-005) of the same substance?
**A.** Its MIC is 15.6 µg/mL.

**Q.** What about the MIC (P. granulosum PRP-006) of the same substance?
**A.** Its MIC is 31.25 µg/mL.

**Q.** What about the MIC (P. granulosum PRP-019) of the same substance?
**A.** The MIC was 15.6 µg/mL.

**Q.** What about the MIC (P. granulosum PRP-021) of the same substance?
**A.** Its MIC is 31.25 µg/mL.

**Q.** What about the MIC (P. granulosum PRP-043) of the same substance?
**A.** Its MIC is 31.25 µg/mL.

**Q.** And the MIC (P. granulosum PRP-044)?
**A.** The MIC was 31.25 µg/mL.

**Q.** What about the MIC (P. granulosum PRP-055) of the same substance?
**A.** Its MIC is 31.25 µg/mL.

**Q.** And the MIC [1]?
**A.** The MIC was <0.49 µg/mL.

**Q.** And the MIC (Strep. mutans ATCC 25175 [2])?
**A.** Its MIC is 15.6 µg/mL.

**Q.** What about the MBC (Strep. mutans ATCC 25175 [3]) of the same substance?
**A.** The MBC was 15.6 µg/mL.

**Q.** And the MIC/MBC ratio (Strep. mutans ATCC 25175 [3])?
**A.** Its MIC/MBC ratio is 1.

**Q.** What about the MIC (C. striatum NCTC 764 [4]) of the same substance?
**A.** Its MIC is 62.5 µg/mL.

**Q.** What about the MBC (C. striatum NCTC 764 [5]) of the same substance?
**A.** The MBC was 62.5 µg/mL.

**Q.** What about the MIC/MBC ratio (C. striatum NCTC 764 [5]) of the same substance?
**A.** The MIC/MBC ratio was 1.

From patent US20100273876A1, “ANTIBACTERIAL FORMULATION COMPRISING A DIALKYL SULPHOSUCCINATE AND A CARBANILIDE ANTIBACTERIAL AGENT” (priority 2007, published 2010)
